Test results reported in patent US9435792B2, “Hemolysis reagent composition for hemoglobin A1C quantitative analysis using enzymatic method” (I-Sens, Inc., priority 2012, dated 2016).

Assay: Evaluation of solubility of surfactant
Format: physicochemical
Conditions: surfactant dissolved in distilled water to a concentration of 0.75 mg/mL
Protocol: In order to use a surfactant, it is essential that the solubility of a sample itself be excellent. First of all, if the sample is not dissolved it cannot be used at all, and thus the solubility of a surfactant was evaluated as a prerequisite.

SMILES: CCCCCCCCCCCCCC(=O)NCCC[N+](C)(C)CCCS(=O)(=O)[O-] [Comp. Ex. 1]
- Solubility: ∘ (dissolved at a concentration of 0.75 mg/mL)
